Results on one compound are retold here after BindingDB's records for doi:10.1021/jm401695d (Emory University, 2014).

This test addresses Glutamate NMDA receptor; Grin1/Grin2c (Rattus norvegicus, UniProt Q00961+P35439). In words: Potentiation of rat recombinant GluN1/GluN2C expressed in Xenopus laevis oocytes assessed as increase in glutamate/glycine-induced current response by two-electrode voltage clamp technique relative to control. Background: Two-electrode voltage clamp is typically applied to oocytes expressing channels or transporters.

Chain of Glutamate NMDA receptor; Grin1/Grin2c (Q00961 whole entry, other chains not shown): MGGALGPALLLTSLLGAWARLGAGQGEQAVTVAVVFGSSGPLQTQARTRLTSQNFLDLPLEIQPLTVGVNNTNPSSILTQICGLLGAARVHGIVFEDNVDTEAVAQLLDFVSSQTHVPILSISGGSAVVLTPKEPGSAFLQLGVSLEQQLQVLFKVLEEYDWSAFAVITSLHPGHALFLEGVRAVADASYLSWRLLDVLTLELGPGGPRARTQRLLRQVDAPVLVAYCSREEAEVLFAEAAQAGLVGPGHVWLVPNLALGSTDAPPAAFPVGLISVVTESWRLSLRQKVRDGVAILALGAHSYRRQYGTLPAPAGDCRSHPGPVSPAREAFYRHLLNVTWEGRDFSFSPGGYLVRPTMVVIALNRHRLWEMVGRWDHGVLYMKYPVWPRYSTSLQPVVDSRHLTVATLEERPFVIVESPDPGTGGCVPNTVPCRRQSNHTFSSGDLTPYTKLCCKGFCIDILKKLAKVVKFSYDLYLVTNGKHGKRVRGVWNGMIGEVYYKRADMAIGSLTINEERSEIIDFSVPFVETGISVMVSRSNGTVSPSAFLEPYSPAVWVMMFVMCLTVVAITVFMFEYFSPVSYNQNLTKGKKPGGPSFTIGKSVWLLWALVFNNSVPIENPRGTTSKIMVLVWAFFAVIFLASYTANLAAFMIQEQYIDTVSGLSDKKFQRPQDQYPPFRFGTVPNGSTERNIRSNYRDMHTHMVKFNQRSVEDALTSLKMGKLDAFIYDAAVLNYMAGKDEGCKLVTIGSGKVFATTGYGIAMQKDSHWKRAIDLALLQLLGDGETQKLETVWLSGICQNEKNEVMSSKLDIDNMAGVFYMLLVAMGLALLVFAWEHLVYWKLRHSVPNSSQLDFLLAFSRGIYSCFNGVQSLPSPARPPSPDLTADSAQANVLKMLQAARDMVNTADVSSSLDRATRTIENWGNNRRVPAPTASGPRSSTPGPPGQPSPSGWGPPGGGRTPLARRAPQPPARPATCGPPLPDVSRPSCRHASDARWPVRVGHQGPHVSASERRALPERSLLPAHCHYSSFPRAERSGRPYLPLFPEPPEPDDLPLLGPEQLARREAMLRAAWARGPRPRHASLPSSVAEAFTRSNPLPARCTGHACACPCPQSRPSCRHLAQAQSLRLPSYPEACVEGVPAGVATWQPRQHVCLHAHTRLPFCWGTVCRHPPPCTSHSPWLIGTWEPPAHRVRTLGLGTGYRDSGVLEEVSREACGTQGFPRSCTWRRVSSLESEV

On to `COC(=O)c1ccc(C2C(C(C)=O)=C(O)C(=O)N2CCc2c(C)[nH]c3ccccc23)cc1` (stereo unspecified), for which the 50% effective concentration (EC50) (usually the midpoint of the concentration-response curve) was found to be 16 µM.
